Data from article PMC13079396, “Use of a cytochrome P450 humanized mouse model to refine schistosomiasis drug discovery” (Proceedings of the National Academy of Sciences of the …, 2026).
Several values for one entry are separate records, joined by “and”; a condition that tells them apart may be missing. Equal entries are not always repeated. Where two headings read alike, the source gives them in different places.

Columns and labels:
[1] = Range-finding PK study, uninfected WT mice, oral rac-PZQ; conditions: female, WT (wild-type), mouse, whole blood, 400 mg/kg
[2] = Range-finding PK study, uninfected 8HUM mice, oral rac-PZQ; assay type: in vivo, mouse; conditions: for AUC(0-t) / Cmax: female, mouse, whole blood, uninfected 8HUM mice, single oral 25 mg/kg rac-PZQ, total blood, n = 2
Protocol: Dose formulations were prepared on the day of dosing. […] Supernatants were analysed by LC-MS/MS immediately. […] Chromatographic separation was […] […] […] used. […] Intrinsic clearance determination […] […] Lower […] […] Analytical acceptance criteria were reported previously (1).

[3] = PK in S. mansoni infected WT mice, oral rac-PZQ; assay type: in vivo; conditions: female, mouse, whole blood, single oral 400 mg/kg rac-PZQ at 41 d postinfection, total blood, n = 3
[4] = PK in S. mansoni infected 8HUM mice, oral rac-PZQ; assay type: in vivo; conditions: female, mouse, whole blood, total blood, n = 3
S. mansoni [5] = experiment: PZQ-induced efficacy (worm and egg burden reduction) in S. mansoni infected 8HUM mice; assay type: in vivo, Schistosoma mansoni; conditions: for worm burden reduction: day 47
Description: (§1) Lower […] Analytical acceptance criteria were reported previously (1). […] Reactions were […]

S. mansoni [6] = conditions: cited from earlier work
[7] = assay type: in vitro ADME; conditions: human, microsomes
Protocol: Supernatants were analysed by LC-MS/MS immediately. […] Chromatographic separation was achieved using a previously described method (2) with minor modifications. […] The flow rate was 1.2 mL/min. […] used. […] Intrinsic clearance determination […] Lower […]

S. mansoni [8] = experiment: PZQ-induced efficacy (worm and egg burden reduction) in S. mansoni infected WT mice; assay type: in vivo, Schistosoma mansoni
Description: as §1

[9] = assay type: in vitro ADME; conditions: mouse, microsomes
[10] = single oral 400 mg/kg, day 47, 400 mg/kg

Row | SMILES | AUC(0-t) [1] [ng·h/mL] | Cmax [1] [ng/mL] | AUC(0-t) [2] [ng·h/mL] | Cmax [2] [ng/mL] | AUC(0-t) [3] [ng·h/mL] | Cmax [3] [ng/mL] | AUC(0-t) ([4]; single oral 100 mg/kg rac-PZQ) [ng·h/mL] | Cmax ([4]; single oral 100 mg/kg rac-PZQ) [ng/mL] | AUC(0-t) ([4]; single oral 200 mg/kg rac-PZQ) [ng·h/mL] | Cmax ([4]; single oral 200 mg/kg rac-PZQ) [ng/mL] | further results
1 | O=C(C1CCCCC1)N1CC(=O)N2CCc3ccccc3[C@@H]2C1 [R-PZQ] | 12000 | 7740 | 2860 | 2210 | 73600 | 25800 | 25700 | 13200 | 68300 | 20800 | 
2 | O=C(C1CCC(O)CC1)N1CC(=O)N2CCc3ccccc3C2C1 (stereo not drawn) [4OH-PZQ] | 98500 | 27600 | 19400 | 5360 | 197000 | 42600 | 108000 | 21700 | 19400 | 5360 | AUClast and Cmax in 8HUM animals, fold lower compared to WT animals ([2]; 8HUM 25 mg/kg vs WT 400 mg/kg rac-PZQ, oral, uninfected): ~ fivefold
3 | O=C(C1CCCCC1)N1CC(=O)N2CCc3ccccc3C2C1 (racemic) [rac-PZQ, praziquantel] |  |  |  |  |  |  |  |  |  |  | worm burden reduction (S. mansoni [5]; 8HUM mice, single oral 100 mg/kg, 100 mg/kg): 92%; worm burden reduction (S. mansoni [5]; 8HUM mice, single oral 100 mg/kg, listed as PZQ, 100 mg/kg): > 90%; worm burden reduction (S. mansoni [5]; 8HUM mice, single oral 200 mg/kg): 98%; reductions in worm burdens (S. mansoni [5]; 8HUM mice, single oral doses of 100 to 200 mg/kg bodyweight): > 90%; increase in efficacy in 8HUM mice vs WT mice at the same dose (S. mansoni [5]; single 100 mg/kg oral dose, 8HUM (this study) vs WT (ref 7)): approximately twofold; drug-induced efficacy (worm burden reduction) (S. mansoni [6]; WT animals, single oral dose of 400 mg/kg rac-PZQ, 400 mg/kg): ~ 94% and > 90%; reduction in worm burden (S. mansoni [6]; WT mice, single 100 mg/kg bodyweight oral dose, at most): ≤ 53%; Microsomal CLint [7]: 3.2 mL/min/g; reduction in adult worm burdens (S. mansoni [8]; single oral 400 mg/kg at 41 d postinfection, day 47, vs excipient controls): 93%; worm burden reduction, females (S. mansoni [8]; [10]): 95%; worm burden reduction, males (S. mansoni [8]; [10]): 90%; Microsomal CLint [9]: 2.7 mL/min/g
